Tested on: LTB4 production in fresh human whole blood
Assay: FLAP Whole Blood Assay (Test B), inhibition of LTB4 production
Assay type: cell-based
Conditions: method B: 4 h incubation at 37° C., calcium ionophore A23187 stimulation
Procedure: FLAP Whole Blood Assay (Test B)
Compounds were tested for the inhibition of LTB4 production in fresh human whole blood obtained by venapuncture using heparin to prevent clotting. 1.5 μL compounds or DMSO carrier were dispensed into the wells of a 96-well deep-well plate in 3-fold dilution series. 500 μL heparnised whole blood was then added followed by incubation at 37° C. for 30 min (method A) or 4 h (method B). 100 μL blood was subsequently transferred in triplicate to pre-dispensed 0.5 μL 2 mM calcium ionophore (calcimycin; A23187) in a second 96-well plate. Following incubation at 37° C. for 20 min, the assays were stopped by adding 10 μL of stop solution (100 mM EGTA, pH 7.4) and the plate was transferred to ice. The plate was centrifuged at 3000 rpm at 4° C. for 10 min and 10 μL plasma was transferred to a fresh 96 well plate containing 90 μL pre-dispensed EIA assay buffer (0.1 M phosphate buffer+0.1% BSA). LTB4 was then measured using reagents from a commercial EIA (Cayman Chemicals). […] Inhibition of LTB4 production was defined as the LTB4 level in the presence of a given concentration of test compound expressed as a % of the LTB4 level in the presence of DMSO. IC50 values were determined by plotting % inhibition versus log compound concentration and using a one site dose response model. […]

IC50: 40 nM
SMILES: Cc1cc(-c2ccc(C(=O)[C@@H]3CCCC[C@H]3C(=O)Nc3cnn4c3C(=O)NCC4)cc2)[nH]n1 [Compound (I), (1R,2R)-2-[4-(3-methyl-1H-pyrazol-5-yl)benzoyl]-N-(4-oxo-4,5,6,7-tetrahydropyrazolo[1,5-a]pyrazin-3-yl)cyclohexanecarboxamide]
